Test results from patent US11905324B2, “Fluorescent fusion polypeptide capable of detecting phosphorylation of cellular membrane receptors by GRKs (G-protein receptor kinases) and/or receptor tyrosine kinases (RTKs)” (Innovative Technologies in Biological Systems SL, priority 2017, dated 2024).

Biological target: T1, NK1 receptor (Homo sapiens, UniProt P25103)
T1 construct: expressed in transfected cells
Assay: NK1-Red ß-ARRNomad biosensor cell line inhibition assay (co-treatment with Substance P)
Type: cell-based
Conditions: co-treated with Substance P 100 nM, 24 h, BD PATHWAY 855; read-out: Ic50 (inhibition of NK1 receptor, biosensor change of localization)
Protocol: The Ic50 for L733,060 was Approx. 1.84×10^−7M after a treatment of 24 h with the agonist.

T1 sequence (P25103 whole entry, species assumed): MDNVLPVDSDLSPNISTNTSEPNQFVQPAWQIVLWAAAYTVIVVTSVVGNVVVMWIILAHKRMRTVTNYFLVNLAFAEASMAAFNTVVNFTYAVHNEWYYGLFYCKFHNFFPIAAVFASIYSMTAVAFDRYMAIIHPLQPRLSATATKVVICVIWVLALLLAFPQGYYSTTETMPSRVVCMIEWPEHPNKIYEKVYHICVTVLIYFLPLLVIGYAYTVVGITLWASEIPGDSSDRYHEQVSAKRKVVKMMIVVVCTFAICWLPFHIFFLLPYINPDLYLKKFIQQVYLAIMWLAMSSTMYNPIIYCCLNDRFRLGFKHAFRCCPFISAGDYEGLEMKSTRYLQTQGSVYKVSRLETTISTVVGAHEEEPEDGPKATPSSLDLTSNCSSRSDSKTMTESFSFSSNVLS

IC50: ~184 nM
SMILES: FC(F)(F)c1cc(CO[C@H]2CCCN[C@H]2c2ccccc2)cc(C(F)(F)F)c1 [L733,060]
